Several values for one entry are separate records, joined by “and”; a condition that tells them apart may be missing. Identical values can stand only once. Activity calls are given as the source filed them. How the source made its calls: active means viability on the fitted dose curve at most 10% of control; inactive means the rest.
Tested on: NCI-H1618 multicellular tumor spheroid viability
Assay: Anticancer human tumor NCI-H1618 cell line growth inhibition;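 further: spheroids exposed to agents for 7 days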
Settings: for viability, T/C: stronger effect = lower value
Procedure, shortened: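 Single agents and combinations were tested on spheroids built from tumor cells plus HUVEC and hMSC, at half-log dilutions starting at or near clinical Cmax, else 10 microM; final DMSO 0.25% (v/v).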

[1] = curve of first compound, second compound 0.003 µM
[2] = second compound 0.003 µM, first compound 0.0316 µM
[3] = second compound 0.003 µM, first compound 0.1 µM
[4] = second compound 0.003 µM, first compound 0.316 µM
[5] = second compound 0.003 µM, first compound 1 µM
[6] = second compound 0.003 µM, first compound 3.16 µM
[7] = second compound 0.003 µM, first compound 10 µM
[8] = curve of first compound, second compound 30 pM
[9] = curve of first compound, second compound 94.9 pM
[10] = curve of first compound, second compound 0.0003 µM
[11] = curve of first compound, second compound 0.000949 µM

CC1COCCN1c1cc(-c2ccnn2C)c2ccnc(-c3ccn[nH]3)c2n1 (centres undefined) + CC[C@@]1(O)C(=O)OCc2c1cc1n(c2=O)Cc2cc3c(CN(C)C)c(O)ccc3nc2-1
IC50 [1]: < 31.6 nM
IC50 (curve of first compound, second compound 0.00949 µM): < 31.6 nM
IC50 (curve of first compound, second compound 0.03 µM): < 31.6 nM
IC50 (curve of first compound, second compound 0.0949 µM): < 31.6 nM
IC50 (curve of first compound, second compound 0.3 µM): < 31.6 nM
viability, T/C [2]: 29.3%
viability, T/C [3]: 15.1%
viability, T/C [4]: 7%
viability, T/C [5]: 2.06%
viability, T/C [6]: 2.27%
viability, T/C [7]: 0.99%
viability, T/C (second compound 0.00949 µM, first compound 0.0316 µM): 7.33%
viability, T/C (second compound 0.00949 µM, first compound 0.1 µM): 4.63%
viability, T/C (second compound 0.00949 µM, first compound 0.316 µM): 4.22%
viability, T/C (second compound 0.00949 µM, first compound 1 µM): 2.35%
viability, T/C (second compound 0.00949 µM, first compound 3.16 µM): 2.23%
viability, T/C (second compound 0.00949 µM, first compound 10 µM): 1.12%
viability, T/C (second compound 0.03 µM, first compound 0.0316 µM): 2.57%
viability, T/C (second compound 0.03 µM, first compound 0.1 µM): 3.94%
viability, T/C (second compound 0.03 µM, first compound 0.316 µM): 3.52%
viability, T/C (second compound 0.03 µM, first compound 1 µM): 1.99%
viability, T/C (second compound 0.03 µM, first compound 3.16 µM): 1.19%
viability, T/C (second compound 0.03 µM, first compound 10 µM): 0.71%
viability, T/C (second compound 0.0949 µM, first compound 0.0316 µM): 3.01%
viability, T/C (second compound 0.0949 µM, first compound 0.1 µM): 2.44%
viability, T/C (second compound 0.0949 µM, first compound 0.316 µM): 5%
viability, T/C (second compound 0.0949 µM, first compound 1 µM): 2.35%
viability, T/C (second compound 0.0949 µM, first compound 3.16 µM): 2.1%
viability, T/C (second compound 0.0949 µM, first compound 10 µM): 0.81%
viability, T/C (second compound 0.3 µM, first compound 0.0316 µM): 1.79%
viability, T/C (second compound 0.3 µM, first compound 0.1 µM): 1.4%
viability, T/C (second compound 0.3 µM, first compound 0.316 µM): 1.52%
viability, T/C (second compound 0.3 µM, first compound 1 µM): 1.45%
viability, T/C (second compound 0.3 µM, first compound 3.16 µM): 0.77%
viability, T/C (second compound 0.3 µM, first compound 10 µM): 0.65%

Cn1nnc2c(C(N)=O)ncn2c1=O
viability, T/C (compound 3.16 µM): 19.8% [middle of 10 runs]
viability, T/C (compound 10 µM): 5.8% [middle of 10 runs]
viability, T/C (compound 31.6 µM): 10.4% [middle of 10 runs]

CNCc1ccc(-c2cc(-c3nc(-c4ccc(S(=O)(=O)C(C)C)cc4)cnc3N)on2)cc1
viability, T/C (compound 0.00949 µM): 97.2% and 99.1% and 104%
viability, T/C (compound 0.03 µM): 96.2% and 99.4% and 112%
viability, T/C (compound 0.0949 µM): 25.7% and 95.3% and 102%
viability, T/C (compound 0.3 µM): 25.8% and 85.3% and 90%
viability, T/C (compound 0.949 µM): 18.8% and 21.5% and 11.7%
viability, T/C (compound 3 µM): 20.3% and 0.47% and 4.41%
IC50 (curve of compound): 63.8 nM and 567 nM and 540 nM

COc1cc(C)[nH]c(=O)c1CN1CCc2c(Cl)cc(C(OC)C3COC3)c(Cl)c2C1=O (centres undefined) + COc1cc2c(cc1O)CCNC21CSC2c3c(OC(C)=O)c(C)c4c(c3C(COC1=O)N1C(O)C3Cc5cc(C)c(OC)c(O)c5C(C21)N3C)OCO4
IC50 [8]: > 10000 nM
IC50 [9]: 527 nM
IC50 [10]: < 31.6 nM
IC50 [11]: < 31.6 nM
IC50 [1]: < 31.6 nM
viability, T/C (second compound 30 pM, first compound 0.0316 µM): 73.8%
viability, T/C (second compound 30 pM, first compound 0.1 µM): 74.9%
viability, T/C (second compound 30 pM, first compound 0.316 µM): 61.7%
viability, T/C (second compound 30 pM, first compound 1 µM): 73.8%
viability, T/C (second compound 30 pM, first compound 3.16 µM): 74.4%
viability, T/C (second compound 30 pM, first compound 10 µM): 67.9%
viability, T/C (second compound 94.9 pM, first compound 0.0316 µM): 86.8%
viability, T/C (second compound 94.9 pM, first compound 0.1 µM): 65.9%
viability, T/C (second compound 94.9 pM, first compound 0.316 µM): 48.3%
viability, T/C (second compound 94.9 pM, first compound 1 µM): 57.5%
viability, T/C (second compound 94.9 pM, first compound 3.16 µM): 31.9%
viability, T/C (second compound 94.9 pM, first compound 10 µM): 38.4%
viability, T/C (second compound 0.0003 µM, first compound 0.0316 µM): 14.9%
viability, T/C (second compound 0.0003 µM, first compound 0.1 µM): 19.3%
viability, T/C (second compound 0.0003 µM, first compound 0.316 µM): 5.64%
viability, T/C (second compound 0.0003 µM, first compound 1 µM): 2.68%
viability, T/C (second compound 0.0003 µM, first compound 3.16 µM): 1.81%
viability, T/C (second compound 0.0003 µM, first compound 10 µM): 3.33%
viability, T/C (second compound 0.000949 µM, first compound 0.0316 µM): 5.55%
viability, T/C (second compound 0.000949 µM, first compound 0.1 µM): 2.33%
viability, T/C (second compound 0.000949 µM, first compound 0.316 µM): 3.62%
viability, T/C (second compound 0.000949 µM, first compound 1 µM): 3.05%
viability, T/C (second compound 0.000949 µM, first compound 3.16 µM): 3.08%
viability, T/C (second compound 0.000949 µM, first compound 10 µM): 3.38%
viability, T/C [2]: 3.07%
viability, T/C [3]: 2.73%
viability, T/C [4]: 3.33%
viability, T/C [5]: 2.29%
viability, T/C [6]: 1.94%
viability, T/C [7]: 2.51%

O=C(c1cc(Cc2n[nH]c(=O)c3ccccc23)ccc1F)N1CCN(C(=O)C2CC2)CC1 + COc1cc2c(cc1O)CCNC21CSC2c3c(OC(C)=O)c(C)c4c(c3C(COC1=O)N1C(O)C3Cc5cc(C)c(OC)c(O)c5C(C21)N3C)OCO4
IC50 [8]: 5700 nM
IC50 [9]: 1830 nM
IC50 [10]: < 94.9 nM
IC50 [11]: < 94.9 nM
IC50 [1]: < 94.9 nM
viability, T/C (second compound 30 pM, first compound 0.0949 µM): 103%
viability, T/C (second compound 30 pM, first compound 0.3 µM): 97.2%
viability, T/C (second compound 30 pM, first compound 0.949 µM): 98.2%
viability, T/C (second compound 30 pM, first compound 3 µM): 88.1%
viability, T/C (second compound 30 pM, first compound 9.49 µM): 19.8%
viability, T/C (second compound 30 pM, first compound 30 µM): 5.66%
viability, T/C (second compound 94.9 pM, first compound 0.0949 µM): 85.7%
viability, T/C (second compound 94.9 pM, first compound 0.3 µM): 76.1%
viability, T/C (second compound 94.9 pM, first compound 0.949 µM): 96.7%
viability, T/C (second compound 94.9 pM, first compound 3 µM): 22.7%
viability, T/C (second compound 94.9 pM, first compound 9.49 µM): 11.6%
viability, T/C (second compound 94.9 pM, first compound 30 µM): 5.96%
viability, T/C (second compound 0.0003 µM, first compound 0.0949 µM): 11.3%
viability, T/C (second compound 0.0003 µM, first compound 0.3 µM): 2.62%
viability, T/C (second compound 0.0003 µM, first compound 0.949 µM): 33.6%
viability, T/C (second compound 0.0003 µM, first compound 3 µM): 22%
viability, T/C (second compound 0.0003 µM, first compound 9.49 µM): 3.44%
viability, T/C (second compound 0.0003 µM, first compound 30 µM): 6.61%
viability, T/C (second compound 0.000949 µM, first compound 0.0949 µM): 4.82%
viability, T/C (second compound 0.000949 µM, first compound 0.3 µM): 3.59%
viability, T/C (second compound 0.000949 µM, first compound 0.949 µM): 4.37%
viability, T/C (second compound 0.000949 µM, first compound 3 µM): 3.86%
viability, T/C (second compound 0.000949 µM, first compound 9.49 µM): 3.51%
viability, T/C (second compound 0.000949 µM, first compound 30 µM): 3.9%
viability, T/C (second compound 0.003 µM, first compound 0.0949 µM): 2.74%
viability, T/C (second compound 0.003 µM, first compound 0.3 µM): 2.65%
viability, T/C (second compound 0.003 µM, first compound 0.949 µM): 3.06%
viability, T/C (second compound 0.003 µM, first compound 3 µM): 3.24%
viability, T/C (second compound 0.003 µM, first compound 9.49 µM): 3.55%
viability, T/C (second compound 0.003 µM, first compound 30 µM): 3.23%

COc1cc(C)[nH]c(=O)c1CN1CCc2c(Cl)cc(C(OC)C3COC3)c(Cl)c2C1=O (centres undefined)
viability, T/C (compound 0.0316 µM): 83.9% and 102% and 58.1%
outcome (compound 0.1 µM): inactive
viability, T/C (compound 0.1 µM): 77.3% and 49.4%
outcome (compound 0.316 µM): inactive
viability, T/C (compound 0.316 µM): 67.3% and 73.7%
viability, T/C (compound 1 µM): 76.1% and 83% and 91.4%
viability, T/C (compound 3.16 µM): 69% and 82.6% and 93.8%
viability, T/C (compound 10 µM): 65.9% and 85.6% and 65.3%
IC50 (curve of compound): > 10000 nM

From PubChem BioAssay AID1845206 (Molecular Pharmacology Branch, DTP, NCI, 2023)
